Reference: article PMC12800093 (Nature Communications, 2025)
Where a SMILES comes first, the peptide text is derived from it. [ ]: non-standard residue; d: D form.

Test system: Mycobacterium tuberculosis complex (MTBC) clinical isolates
Conditions: 96 h

CC(C)[C@@H](NC(=O)[C@H](N)Cc1c[nH]c2ccccc12)C(=O)N[C@@H](C(=O)N[C@H](Cc1c[nH]c2ccccc12)C(=O)N[C@H](Cc1c[nH]cn1)C(=O)N[C@H](CCCNC(=N)N)C(=O)N[C@H](CCCNC(=N)N)C(=O)N[C@H](Cc1c[nH]c2ccccc12)C(=O)N[C@H](Cc1c[nH]c2ccccc12)C(=O)N[C@H](Cc1c[nH]cn1)C(=O)N[C@H](Cc1c[nH]c2ccccc12)C(=O)N[C@H](CCCNC(=N)N)C(=O)N[C@H](CCCCN)C(N)=O)C(C)C [MAD1-RI] (H-[dW][dV][dV][dW][dH][dR][dR][dW][dW][dH][dW][dR][dK]-NH2)
MICs against a panel of drug-resistant clinical Mtb isolates: ≤ 40 µM
